Measurements from patent US12384776B2, “Compounds and uses thereof” (Foghorn Therapeutics Inc., priority 2019, dated 2025).

These compounds were tested against Nanoluciferase-BRD9 fusion protein (3×FLAG-NLuc-BRD9) in SYO-1 cells (Homo sapiens (Human), UniProt Q9H8M2) (assay: SYO1 BRD9 NanoLuc degradation assay). Settings: SYO-1 cells expressing 3×FLAG-NLuc-BRD9, 6 hours incubation, top dose 1 μM.
Assay type: cell-based
Summary of the method: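 Stable SYO-1 line expressing 3×FLAG-NLuc-BRD9, treated with 10-point 3-fold dilutions (top 1 μM final) for 6 hours. Nanoluciferase luminescence read with Nano-Glo reagent. % inhibition relative to DMSO (high control) and 1 μM reference BRD9 degrader (low control).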

Sequence of Nanoluciferase-BRD9 fusion protein (3×FLAG-NLuc-BRD9) in SYO-1 cells (Q9H8M2 whole entry, the tested form may be a part): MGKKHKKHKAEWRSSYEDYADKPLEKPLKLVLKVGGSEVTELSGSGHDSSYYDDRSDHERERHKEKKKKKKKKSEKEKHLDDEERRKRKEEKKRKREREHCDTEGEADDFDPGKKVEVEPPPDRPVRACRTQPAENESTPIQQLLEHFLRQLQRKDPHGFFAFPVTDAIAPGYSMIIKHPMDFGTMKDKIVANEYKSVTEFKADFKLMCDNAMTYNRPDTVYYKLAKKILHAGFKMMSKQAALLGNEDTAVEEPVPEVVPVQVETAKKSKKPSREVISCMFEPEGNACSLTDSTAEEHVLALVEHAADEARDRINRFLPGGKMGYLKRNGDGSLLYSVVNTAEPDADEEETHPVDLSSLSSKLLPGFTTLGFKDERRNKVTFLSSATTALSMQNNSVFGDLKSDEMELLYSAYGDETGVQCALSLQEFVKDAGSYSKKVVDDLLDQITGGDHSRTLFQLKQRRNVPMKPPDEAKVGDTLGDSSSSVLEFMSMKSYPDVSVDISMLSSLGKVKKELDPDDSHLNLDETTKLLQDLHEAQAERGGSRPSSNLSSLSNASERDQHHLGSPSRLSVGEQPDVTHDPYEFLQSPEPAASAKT

SMILES	IC50
CNC(=O)N1CCc2c(-c3cc(OC)c(CN4CC5CC4CC5CN4CCN(c5ccc6c(c5)C(=O)N(C5CCC(=O)NC5=O)C6=O)CC4)c(OC)c3)cn(C)c(=O)c2C1 (stereo not drawn) [Compound D129]	10 to 100 nM
COc1cc(-c2cn(C)c(=O)c3c2CCN(C(=O)NC2CCC4CN(CCCOc5ccc6c(c5)C(=O)N(C5CCC(=O)NC5=O)C6=O)CC42)C3)cc(OC)c1CN(C)C (stereo not drawn) [Compound D244]	100 to 1000 nM
COc1cc(-c2cn(C)c(=O)c3c2CCN(C(=O)NCC2CC4CN(c5ccc6c(c5)C(=O)N([C@@H]5CCC(=O)NC5=O)C6=O)CC4C2)C3)cc(OC)c1CN(C)C (stereo partly drawn) [Compound D123]	< 10 nM
COc1cc(-c2cn(C)c(=O)c3c2CCN(C(=O)NCCN2CC4(CCN(c5ccc6c(c5)C(=O)N(C5CCC(=O)NC5=O)C6=O)C4)C2)C3)cc(OC)c1CN(C)C (stereo not drawn) [Compound D211]	100 to 1000 nM
COc1cc(-c2cn(C)c(=O)c3c2CCN(C(=O)NC2CC4(CCN(CCCCN5CCN(c6ccc7c(c6)C(=O)N(C6CCC(=O)NC6=O)C7=O)CC5)C4)C2)C3)cc(OC)c1CN(C)C (stereo not drawn) [Compound D226]	10 to 100 nM
CNC(=O)N1CCc2c(-c3cc(OC)c(CN4CCC5(CC4)CC(N4Cc6cc7c(cc6C4)C(=O)N(C4CCC(=O)NC4=O)C7=O)C5)c(OC)c3)cn(C)c(=O)c2C1 (stereo not drawn) [Compound D182]	< 10 nM
CNC(=O)N1CCc2c(-c3cc(OC)c(CN4CCC(CCN5CCN(c6cc7c(cc6F)C(=O)N(C6CCC(=O)NC6=O)C7)CC5)CC4)c(OC)c3)cn(C)c(=O)c2C1 (stereo not drawn) [Compound D84]	< 10 nM
COc1cc(-c2cn(C)c(=O)c3c2CCN(C(=O)NCCN2CCC4(CCN4c4ccc5c(c4)C(=O)N(C4CCC(=O)NC4=O)C5=O)C2)C3)cc(OC)c1CN(C)C (stereo not drawn) [Compound D185]	100 to 1000 nM
COc1cc(-c2cn(C)c(=O)c3c2CCN(C(=O)NCCCN2CCC4(CCN(c5ccc6c(c5)C(=O)N(C5CCC(=O)NC5=O)C6=O)C4)C2)C3)cc(OC)c1CN(C)C (stereo not drawn) [Compound D208]	10 to 100 nM
COc1cc(-c2cn(C)c(=O)c3c2CCN(C(=O)NCCCN2CCC4(CCN4c4ccc5c(c4)C(=O)N(C4CCC(=O)NC4=O)C5=O)C2)C3)cc(OC)c1CN(C)C (stereo not drawn) [Compound D261]	10 to 100 nM
CNC(=O)N1CCc2c(-c3cc(OC)c(CN4CC(C(C)N5CCC6(CC5)CN(c5ccc7c(c5)CN(C5CCC(=O)NC5=O)C7)C6)C4)c(OC)c3)cn(C)c(=O)c2C1 (stereo not drawn) [Compound D51]	< 10 nM
COc1cc(-c2cn(C)c(=O)c3c2CCN(C(=O)NC2CC2)C3)cc(OC)c1CN1CCC(CCN2CCN(c3ccc4c(c3)CN(C3CCC(=O)NC3=O)C4=O)CC2)CC1 (stereo not drawn) [Compound D85]	< 10 nM
CNC(=O)N1CCc2c(-c3cc(OC)c(CN4CC(S(=O)(=O)NCCCCOc5cccc6c5C(=O)N(C5CCC(=O)NC5=O)C6=O)C4)c(OC)c3)cn(C)c(=O)c2C1 (stereo not drawn) [Compound D281]	10 to 100 nM
[2H]C1([2H])CC([2H])(N2C(=O)c3ccc(N4CCN(CCC5CCN(Cc6c(OC)cc(-c7cn(C)c(=O)c8c7CCN(C(=O)NC)C8)cc6OC)CC5)CC4)cc3C2=O)C(=O)NC1=O (stereo not drawn) [Compound D80]	< 10 nM
CNC(=O)N1CCc2c(-c3cc(OC)c(CN4CCC(=CCN5CCN(c6ccc7c(c6)C(=O)N(C6CCC(=O)NC6=O)C7=O)CC5)CC4)c(OC)c3)cn(C)c(=O)c2C1 (stereo not drawn) [Compound D127]	< 10 nM
COCCNC(=O)N1CCc2c(-c3cc(OC)c(CN4CCN(CCC5CCN(c6ccc7c(c6)C(=O)N(C6CCC(=O)NC6=O)C7=O)CC5)CC4)c(OC)c3)cn(C)c(=O)c2C1 (stereo not drawn) [Compound D43]	< 10 nM
CNC(=O)N1CCc2c(-c3cc(OC)c(CN4CCN(CCC5CCN(c6ccc7c(c6)C(=O)N(C6CCC(=O)NC6=O)C7=O)CC5)C(C#N)C4)c(OC)c3)cn(C)c(=O)c2C1 (stereo not drawn) [Compound D93]	< 10 nM

Same assay, conditions: SYO-1 cells, 6 hours, Table 6A

SMILES	IC50
CNC(=O)N1CCc2c(-c3cc(OC)c(CN4CCN(C(=O)CCCOc5cccc6c5C(=O)N(C5CCC(=O)NC5=O)C6=O)CC4)c(OC)c3)cn(C)c(=O)c2C1 (stereo not drawn) [Compound D1, 5-(4-[[4-(4-[[2-(2,6-dioxopiperidin-3-yl)-1,3-dioxoisoindol-4-yl]oxy]butanoyl)piperazin-1-yl]methyl]-3,5-dimethoxyphenyl)-N,7-dimethyl-8-oxo-3,4-dihydro-1H-2,7-naphthyridine-2-carboxamide]	> 10 nM
COc1cc(-c2cn(C)c(=O)c3c2CCN(C(=O)NCCN(C)CCNC(=O)COc2cccc4c2C(=O)N(C2CCC(=O)NC2=O)C4=O)C3)cc(OC)c1CN(C)C (stereo not drawn) [Compound D8, N-(2-[[2-(5-[4-[(dimethylamino)methyl]-3,5-dimethoxyphenyl]-7-methyl-8-oxo-3,4-dihydro-1H-2,7-naphthyridine-2-carbonylamino)ethyl](methyl)amino]ethyl)-2-[[2-(2,6-dioxopiperidin-3-yl)-1,3-dioxoisoindol-4-yl]oxy]acetamide formic acid]	> 100 nM
CNC(=O)N1CCc2c(-c3cc(OC)c(CN4CCC5(CC4)CN(C(=O)CCCCOc4cccc6c4C(=O)N(C4CCC(=O)NC4=O)C6=O)CCO5)c(OC)c3)cn(C)c(=O)c2C1 (stereo not drawn) [Compound D4, 5-(4-[[4-(5-[[2-(2,6-dioxopiperidin-3-yl)-1,3-dioxoisoindol-4-yl]oxy]pentanoyl)-1-oxa-4,9-diazaspiro[5.5]undecan-9-yl]methyl]-3,5-dimethoxyphenyl)-N,7-dimethyl-8-oxo-3,4-dihydro-1H-2,7-naphthyridine-2-carboxamide formic acid]	> 10 nM

Same assay, conditions: SYO-1 cells, 6 hours, Table 6C

SMILES	IC50
COc1cc(-c2cn(C)c(=O)c3c2CCC(=O)N3)cc(OC)c1CN1CCC(CN2CCC3(CC2)CC(Oc2ccc4c(c2)CN(C2CCC(=O)NC2=O)C4=O)C3)CC1 (stereo not drawn) [Compound D354]	< 10 nM
CNC(=O)N1CCc2c(-c3cc(OC)c(CN4CCC(CN5CCC6(CN(c7ccc8c(c7)CN(C7CCC(=O)NC7=O)C8=O)C6)C(F)(F)C5)CC4)c(OC)c3)cn(C)c(=O)c2C1 (stereo not drawn) [Compound D339]	< 10 nM
CNC(=O)N1CCc2c(-c3cc(OC)c(CN4CCN(CCC5CCN(c6ccc7c(c6)CN(C6CCC(=O)NC6=O)C7=O)CC5)CC45CCC5)c(OC)c3)cn(C)c(=O)c2C1 (stereo not drawn) [Compound D321]	< 10 nM
CNC(=O)N1CCc2c(-c3cc(OC)c(CN4CCN(CCC5CCN(c6ccc7c(c6)C(=O)N(C6CCC(=O)NC6=O)C7)CC5(F)F)CC4)c(OC)c3)cn(C)c(=O)c2C1 (stereo not drawn) [Compound D346]	< 10 nM
CNC(=O)N1CCc2c(-c3cc(OC)c(CN4CCN(CCC5CCN(c6ccc7c(c6)C(=O)N(C6CCC(=O)NC6=O)C7)CC5)CC4(C)C)c(OC)c3)cn(C)c(=O)c2C1 (stereo not drawn) [Compound D309]	< 10 nM
COc1cc(-c2cn(C)c(=O)c3c2CCC3)cc(OC)c1CN1CCC2(CC1)CN(c1ccc3c(c1)C(=O)N(C1CCC(=O)NC1=O)C3=O)C2 (stereo not drawn) [Compound D363]	< 10 nM
[2H]C([2H])([2H])n1cc(-c2cc(OC)c(CN3CCN(CCC4CCN(c5ccc6c(c5)CN(C5CCC(=O)NC5=O)C6=O)CC4)CC3)c(OC)c2)c2c(c1=O)CN(C(=O)NCC(F)F)CC2 (stereo not drawn) [Compound D317]	< 10 nM
COc1cc(-c2cn(C)c(=O)c3c2CCC3)cc(OC)c1CN1CCN(c2ccc3c(c2)C(=O)N(C2CCC(=O)NC2=O)C3=O)CC1 (stereo not drawn) [Compound D366]	< 10 nM
CNC(=O)N1CCc2c(-c3cc(OC)c(CN4CCC(CN5CCC6(CC5)CC(Oc5ccc7c(c5)C(=O)N(C5CCC(=O)NC5=O)C7=O)C6)CC4)c(OC)c3)cn(C(F)F)c(=O)c2C1 (stereo not drawn) [Compound D338]	< 10 nM
COc1cc(-c2cn(C)c(=O)c3c2CCN(C(=O)NCC(F)F)C3)cc(OC)c1CN1CCN(CCC2CCN(c3ccc4c(c3)CN(C3CCC(=O)NC3=O)C4=O)CC2)CC12CC2 (stereo not drawn) [Compound D311]	< 10 nM
